Experimental data as given in EP0308190A2, “Ultra mild skin cleansing toilet bar with selected mixed polymers” (THE PROCTER & GAMBLE COMPANY, priority 1987, dated 1989).

Test system: skin epidermis

Relative Skin Barrier Penetration Value: 40
Substance: Cocoyl Isethionate
